Reference: article PMC5118987 (Antimicrobial Agents and Chemotherapy, 2016)
Where two headings read alike, the source gives them in different places.

How the values were obtained:
[1] = tested on: INSTI-resistant HIV-1 mutants (HXB2); assay: microbe, parasite or virus in culture; type: cell-based
HIV-1 clonal variants = assay: PhenoSense integrase assay, clonal variants from EVG/COBI/FTC/TDF virologic failures; type: cell-based
Description: Clonal Analysis of HIV-1 from Patients. Plasma from 16 patients treated in Studies GS-US-236-0102 and GS-US-236-0103 with confirmed virologic failure and resistance development in the HIV-1 integrase gene were sent to Monogram Biosciences (South San Francisco, CA) for clonal analysis. The HIV-1 RNA was isolated and the cDNA was synthesized using Monogram proprietary primers. Using proprietary primers, PCR amplification of the entire protease, reverse transcriptase, and integrase coding regions of the pol gene were performed. PCR products were inserted into T/A cloning vectors.
Approximately 20 clones were chosen per patient sample for sequencing using proprietary primers. A subset of clones was chosen for phenotypic analysis based on the presence of INSTI resistance mutations. Resistance test vectors containing the patient-derived integrase coding region from selected clones were constructed using standard Monogram Biosciences protocols. […]
values) in these clones were obtained through a contract study by Monogram Biosciences using the PhenoSense integrase assay. The fold-change from the NL4-3 wild-type reference vector values was determined.

[2] = tested on: inhibitor-selected HIV-1 IIIb passages; assay: Phenotypic profile of selected HIV-1 passages; type: cell-based; conditions: for EC50: Human immunodeficiency virus 1, IIIB
HIV-1 BaL = conditions: primary CD4+ T-cells, 35 days, drug at tissue culture equivalent clinical Cmin (FTC 160 × EC50)

Cc1nnc(C(=O)NC(C)(C)c2nc(C(=O)NCc3ccc(F)cc3)c(O)c(=O)n2C)o1 [RAL, raltegravir]
EC50 ([1]; Human immunodeficiency virus 1, HXB2, IN mutant E92Q): 38 ± 9 nM
EC50 ([1]; Human immunodeficiency virus 1, HXB2, IN mutant E92Q/N155H): 624 ± 213 nM
EC50 ([1]; Human immunodeficiency virus 1, HXB2, IN mutant E138K/Q148K): 1530 nM
EC50 ([1]; Human immunodeficiency virus 1, HXB2, IN mutant G140S/Q148R): 2460 nM
EC50 ([1]; Human immunodeficiency virus 1, HXB2, IN mutant M50I (BIC/DTG selection)): 7.4 ± 1.7 nM
EC50 ([1]; Human immunodeficiency virus 1, HXB2, IN mutant M50I/R263K (BIC selection)): 7.7 ± 2.1 nM
EC50 ([1]; Human immunodeficiency virus 1, HXB2, IN mutant M50I/S119R/R263K (DTG selection)): 19 ± 7 nM
EC50 ([1]; Human immunodeficiency virus 1, HXB2, IN mutant N155H): 188 ± 37 nM
EC50 ([1]; Human immunodeficiency virus 1, HXB2, IN mutant N155H/Q148R): 2180 nM
EC50 ([1]; Human immunodeficiency virus 1, HXB2, IN mutant Q148R): 427 ± 52 nM
EC50 ([1]; Human immunodeficiency virus 1, HXB2, IN mutant R263K (BIC/DTG selection), Table 7): 7.7 ± 1.2 nM
EC50 ([1]; Human immunodeficiency virus 1, HXB2, IN mutant R263K, Table 6): 10.4 ± 1.4 nM
EC50 ([1]; Human immunodeficiency virus 1, HXB2, IN mutant S119R (DTG selection)): 15 ± 5 nM
EC50 ([1]; Human immunodeficiency virus 1, HXB2, IN mutant S119R/R263K (DTG selection)): 12 ± 2 nM
EC50 ([1]; Human immunodeficiency virus 1, HXB2, IN mutant S153Y (DTG selection)): 15 ± 4 nM
EC50 ([1]; Human immunodeficiency virus 1, HXB2, IN mutant S153Y/R263K (DTG selection)): 22 ± 2 nM
EC50 ([1]; Human immunodeficiency virus 1, HXB2, IN mutant Y143R): 418 ± 151 nM
EC50 ([1]; Human immunodeficiency virus 1, HXB2, WT (HXB2), Table 6, read-out: EC50): 9.4 ± 1.4 nM
EC50 ([1]; Human immunodeficiency virus 1, HXB2, WT (HXB2), Table 7, read-out: EC50): 7.1 ± 1.1 nM
cross-resistance of BIC-selected variants ([1]; all BIC-selected variants): < 8 fold
Susceptibility (Fold-change vs. WT) (HIV-1 clonal variants; clone 6041-11: E92Q): 3.67 fold-change
Susceptibility (Fold-change vs. WT) (HIV-1 clonal variants; clone 6101-12: Q148R): 32 fold-change
Susceptibility (Fold-change vs. WT) (HIV-1 clonal variants; clone 6101-14: N155H): 6.56 fold-change
Susceptibility (Fold-change vs. WT) (HIV-1 clonal variants; clone 6101-15: E92Q): 4.41 fold-change
Susceptibility (Fold-change vs. WT) (HIV-1 clonal variants; clone 6322-1: N155H, G163R): 15 fold-change
Susceptibility (Fold-change vs. WT) (HIV-1 clonal variants; clone 6322-11: N155H): 11 fold-change
Susceptibility (Fold-change vs. WT) (HIV-1 clonal variants; clone 6503-10: E92Q): 3.88 fold-change
Susceptibility (Fold-change vs. WT) (HIV-1 clonal variants; clone 6545-7: N155H): 15 fold-change
Susceptibility (Fold-change vs. WT) (HIV-1 clonal variants; clone 6648-7: E92Q): 4.20 fold-change
Susceptibility (Fold-change vs. WT) (HIV-1 clonal variants; clone 6648-10: E92Q): 4.20 fold-change
Susceptibility (Fold-change vs. WT) (HIV-1 clonal variants; clone 6648-11: E92Q): 3.97 fold-change
Susceptibility (Fold-change vs. WT) (HIV-1 clonal variants; clone 6667-1: E92Q): 5.09 fold-change
Susceptibility (Fold-change vs. WT) (HIV-1 clonal variants; clone 7299-11: Q148R, G140C): 24 fold-change
Susceptibility (Fold-change vs. WT) (HIV-1 clonal variants; clone 7332-10: None): 0.79 fold-change
Susceptibility (Fold-change vs. WT) (HIV-1 clonal variants; clone 7425-11: E92Q): 1.95 fold-change
Susceptibility (Fold-change vs. WT) (HIV-1 clonal variants; clone 7476-5: T66I, E157Q): 1.63 fold-change
Susceptibility (Fold-change vs. WT) (HIV-1 clonal variants; clone 7476-9: T66I, T97A, E157Q): 2.45 fold-change
Susceptibility (Fold-change vs. WT) (HIV-1 clonal variants; clone 7562-12: N155H): 13 fold-change
Fold-Resistance Relative to HIV-1 IIIb ([2]; HIV-1-IIIb (reference)): 1 fold
EC50 ([2]; 480 h, selected virus EVG P2 (day 20, 7.2 nM)): 25.9 nM
EC50 ([2]; HIV-1-IIIb (unselected)): 8.8 nM
EC50 ([2]; selected virus BIC P3 (day 47, 6 nM)): 18.1 nM
EC50 ([2]; selected virus BIC P5 (day 71, 12 nM)): 18.3 nM
EC50 ([2]; selected virus BIC P6 (day 86, 24 nM)): 24.4 nM
EC50 ([2]; selected virus BIC P8 (day 156, 96 nM)): 28.8 nM
EC50 ([2]; selected virus BIC P9 (day 181, 192 nM)): 41.7 nM
EC50 ([2]; selected virus BIC P10 (day 234, 384 nM)): 29.3 nM
EC50 ([2]; selected virus DTG P3Lo (day 59, 6.4 nM)): 11.8 nM
EC50 ([2]; selected virus DTG P4 (day 87, 9.6 nM)): 23.2 nM
EC50 ([2]; selected virus DTG P5 (day 97, 14.4 nM)): 28 nM
EC50 ([2]; selected virus DTG P7 (day 139, 32.4 nM)): 39.7 nM
EC50 ([2]; selected virus DTG P9 (day 174, 72.9 nM)): 43 nM
EC50 ([2]; selected virus DTG P10 (day 202, 109.4 nM)): 56.9 nM
EC50 ([2]; selected virus EVG P4 (day 41, 28.8 nM)): 26.9 nM
EC50 ([2]; selected virus EVG P6 (day 56, 115 nM)): 19.9 nM
EC50 ([2]; selected virus EVG P7 (day 67, 230 nM)): 28.7 nM
EC50 ([2]; selected virus EVG P9 (day 94, 922 nM)): 44.9 nM
EC50 ([2]; selected virus EVG P10 (day 119, 1843 nM)): 17 nM
Fold-Resistance Relative to HIV-1 IIIb ([2]; selected virus BIC P3): 2 fold
Fold-Resistance Relative to HIV-1 IIIb ([2]; selected virus BIC P5): 2.1 fold
Fold-Resistance Relative to HIV-1 IIIb ([2]; selected virus BIC P6): 2.8 fold
Fold-Resistance Relative to HIV-1 IIIb ([2]; selected virus BIC P8): 3.3 fold
Fold-Resistance Relative to HIV-1 IIIb ([2]; selected virus BIC P9): 4.7 fold
Fold-Resistance Relative to HIV-1 IIIb ([2]; selected virus BIC P10): 3.3 fold
Fold-Resistance Relative to HIV-1 IIIb ([2]; selected virus DTG P3Lo): 1.3 fold
Fold-Resistance Relative to HIV-1 IIIb ([2]; selected virus DTG P4): 2.6 fold
Fold-Resistance Relative to HIV-1 IIIb ([2]; selected virus DTG P5): 3.2 fold
Fold-Resistance Relative to HIV-1 IIIb ([2]; selected virus DTG P7): 4.5 fold
Fold-Resistance Relative to HIV-1 IIIb ([2]; selected virus DTG P9): 4.9 fold
Fold-Resistance Relative to HIV-1 IIIb ([2]; selected virus DTG P10): 6.4 fold
Fold-Resistance Relative to HIV-1 IIIb ([2]; selected virus EVG P2): 2.9 fold
Fold-Resistance Relative to HIV-1 IIIb ([2]; selected virus EVG P4): 3.0 fold
Fold-Resistance Relative to HIV-1 IIIb ([2]; selected virus EVG P6): 2.3 fold
Fold-Resistance Relative to HIV-1 IIIb ([2]; selected virus EVG P7): 3.3 fold
Fold-Resistance Relative to HIV-1 IIIb ([2]; selected virus EVG P9): 5.1 fold
Fold-Resistance Relative to HIV-1 IIIb ([2]; selected virus EVG P10): 1.9 fold
Frequency of Viral Breakthrough with RAMs (HIV-1 BaL): 58%
p24+ Wells (HIV-1 BaL): 12/12
